Measured values from PubChem BioAssay (NCI).
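Method: 48-hour compound exposure of cells in 96-well plates, five concentrations, linear interpolation of endpoints. At the GI50, growth is halved. TGI: total growth inhibition.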

Columns and labels:
Assay in all cases: DTP human tumour cell line panel, 48 h
[1] = test system: CCRF-CEM leukemia
[2] = test system: COLO 205 colon
[3] = test system: HCC-2998 colon
[4] = test system: HCT-15 colon
[5] = test system: HOP-92 NSCLC
[6] = test system: HS 578T breast
[7] = test system: IGROV1 ovarian
[8] = test system: K-562 leukemia
[9] = test system: KM12 colon
[10] = test system: LOX IMVI melanoma
[11] = test system: MCF7 breast
[12] = test system: OVCAR-4 ovarian
[13] = test system: RXF 393 renal
[14] = test system: SF-539 CNS
[15] = test system: SK-MEL-2 melanoma
[16] = test system: SNB-19 CNS
[17] = test system: SNB-75 CNS

| SMILES | TGI [1] [µM] | TGI [2] [µM] | GI50 [3] [µM] | TGI [3] [µM] | TGI [4] [µM] | GI50 [5] [µM] | TGI [5] [µM] | TGI [6] [µM] | TGI [7] [µM] | TGI [8] [µM] | TGI [9] [µM] | TGI [10] [µM] | TGI [11] [µM] | TGI [12] [µM] | TGI [13] [µM] | TGI [14] [µM] | TGI [15] [µM] | TGI [16] [µM] | TGI [17] [µM] |
| --- | --- | --- | --- | --- | --- | --- | --- | --- | --- | --- | --- | --- | --- | --- | --- | --- | --- | --- | --- |
| NCCSC1(O)C(=O)c2ccccc2-c2ccccc21 (stereo not given) | 6.82 | 3.84 | 2.01 | 3.56 | 2.54 | 1.3 | 2.62 | 6.2 | 3.73 | 2.43 | 3.33 | 0.717 | 3.64 | 0.556 | 3.01 | 2.67 | 3.47 | 2.86 | 2.4 |
| O=C(CC(O)(C(F)(F)Cl)C(F)(F)Cl)CC(O)(C(F)(F)Cl)C(F)(F)Cl | > 10 | 3.07 | – | > 10 | > 10 | – | 3.04 | 7.86 | > 10 | 4.45 | > 10 | > 10 | > 10 | 9.67 | 6.08 | > 10 | 3.54 | > 10 | 9.7 |
| Brc1ccc(N=C/C=C(\Nc2ccc(Br)cc2)C23CC4CC(CC(C4)C2)C3)cc1 | 4.5 | 47.3 | – | 35.8 | > 46.6 | – | 31.5 | > 67.4 | 28 | > 67 | 33.9 | 21.8 | 28.4 | 31.3 | 29 | 51.8 | 28.3 | > 100 | 35.5 |
| Cc1ccc2[nH]c3c(C)c4cc[n+](C)cc4c(C)c3c2c1 | 40.3 | 5.05 | – | 10.1 | > 82.6 | – | 33.7 | 0.917 | 32.2 | 63.4 | 6.89 | 28.9 | > 23.8 | 13.4 | 18.3 | 2.73 | 4.71 | 2.53 | 0.761 |
| COc1cc(C)cc(C(=O)OCc2ccccc2)c1C1=C(Cl)C(=O)C(Cl)=CC1=O | 4.76 | > 10 | – | > 10 | > 10 | – | 9.92 | > 10 | > 10 | 5.37 | > 10 | > 10 | > 10 | > 9 | > 10 | > 10 | > 10 | > 10 | > 10 |
| c1ccc(C2C3=C(c4ccccc4CC3)N3c4cc5nc6ccccc6nc5cc4NC34CCCCC24)cc1 (stereo not given) | 5.9 | > 10 | – | > 10 | > 10 | – | > 10 | > 10 | > 10 | > 10 | > 10 | > 10 | > 10 | > 10 | > 10 | > 10 | > 10 | > 10 | > 10 |
| [N-]=[N+]=NCC(=O)c1c[nH]c(=O)[nH]c1=O | > 100 | > 100 | – | > 100 | > 100 | – | > 100 | > 100 | > 100 | > 100 | > 100 | > 100 | > 100 | > 100 | > 100 | > 100 | > 100 | > 100 | > 100 |
| Cc1ccc([N+](=O)[O-])cc1S(=O)(=O)Nc1ccc(C(=O)/C=C/c2ccccc2)cc1 | 69.9 | 44.9 | – | 32.1 | 48.7 | – | 41.1 | > 100 | 39.6 | 29.7 | 32.2 | 36.7 | 26.8 | 5.51 | 25 | > 100 | 38.2 | 39.6 | 32.3 |
| CCCCCCCCOP(=O)(O)OP(=O)(O)OCC1OC(n2ccc(N)nc2=O)C(O)C1O (stereo not given) | > 100 | > 100 | – | > 100 | > 100 | – | > 100 | > 100 | > 100 | > 100 | > 100 | > 100 | > 100 | > 100 | > 100 | > 100 | > 100 | > 100 | > 100 |
